# Columns and labels:
# [1] = test system: Hep3B; test: Cell proliferation assay (CellTiter 96 Aqueous One Solution); type: cell-based; conditions: Homo sapiens, hepatocellular carcinoma cells, 48 hours of treatment
# Protocol: (§1) Cell proliferation was analyzed after 48 hours of in vitro treatment using the CellTiter 96 Aqueous One Solution Cell Proliferation Assay (Promega, Madison, W). This is a colorimetric method for determining the number of viable cells in proliferation.
# (§2) For the assay, suspension cells were cultured by triplicate at a density of 1×10^6 cells/ml in 96-well plates (100.000 cells/well, 100 μl/well), except for HepG2, Hep3B and PLC/PRF/5 cell lines which were cultured at a density of 3000 cells/well, 100 μl/well).
# (§3) Adherent cells were obtained from 80-90% confluent flasks and 100 μl of cells were seeded at a density of 5000 cells/well in 96-well plates by triplicate. Before addition of the compounds, adherent cells were allowed to attach to the bottom of the wells for 12 hours. In all cases, only the 60 inner wells were used to avoid any border effects.
# (§4) After 48 hours of treatment, plates with suspension cells were centrifuged at 800g for 10 minutes and medium was removed. The plates with adherent cells were flicked to remove medium. Then, cells were incubated with 100 μl/well of medium and 20 μl/well of CellTiter 96 Aqueous One Solution reagent. After 1-3 hours of incubation at 37° C., absorbance was measured at 490 nm in a 96-well plate reader. The background absorbance was measured in wells with only cell line medium and solution reagent. Data was calculated as a percentage of total absorbance of treated cell/absorbance of non treated cells.
# [2] = test system: CEMO-1; test: as above; type: cell-based; conditions: acute lymphocytic leukemia (ALL) cells, 48 hours of treatment
# Protocol: as §1, §2, §3, §4
# [3] = test system: PLC/PRF/5; test: as above; type: cell-based; conditions: Homo sapiens, hepatocellular carcinoma cells, 48 hours of treatment
# Protocol: as §1, §2, §3, §4
# [4] = test system: HepG2; test: as above; type: cell-based; conditions: Homo sapiens, hepatocellular carcinoma cells, 48 hours of treatment
# Protocol: as §1, §2, §3, §4
# [5] = molecular target: T1, human DNMT1 (Homo sapiens, UniProt P26358); test: DNMT1 enzyme activity assay (TR-FRET, EPIgeneous methyltransferase assay); type: biochemical; conditions: human DNMT1, 15 minutes at 37° C.
# T1 construct: purchased Reaction Biology Corp. DMT-21-124
# Protocol: DNMT1 Enzyme Activity Assay
# The biochemical assay to measure DNMT1 enzyme activity relies on time-resolved fluorescence energy transfer (TR-FRET) between lumi4-Tb (donor) and d2 (acceptor) using the EPIgeneous methyltransferase assay (CisBio Cat#62SAHPEB). […] TR-FRET signal is inversely proportional to the concentration of SAH, product of DNMT1 enzyme activity, in the sample. The human DNMT1 was obtained from Reaction Biology Corp. (Cat# DMT-21-124).
# Enzyme activity assay was carried out in a white 384-well plate in a final volume of 20 μl, as follow: • 4 μl of vehicle or studied compound 2.5× concentrated prepared in assay buffer (50 mM Tris-HCl, 1 mM EDTA, 1 mM DTT, 0.1% Triton X-100, 5% glycerol pH 7.5). Final percentage of DMSO was 0.5%. • 2 μl of 1 nM DNMT1 enzyme diluted in assay buffer.
# (§5) For each well, fluorescence was measured at 620 nm and 665 nm. A ratio (665 nm/620 nm) was then calculated in order to minimize medium interferences. Positive control was obtained in the presence of the vehicle of the compounds. Calculated IC50 values were determined using GraphPrism using 4-parameters inhibition curve.
# [6] = molecular target: T2, human G9a enzyme (Homo sapiens, UniProt Q96KQ7); test: G9a enzyme activity assay (TR-FRET); type: biochemical; conditions: 1 hour at room temperature
# T2 construct: purchased BPS Biosciences 51001; host or cells: baculovirus infected Sf9 cells
# T2 sequence (Q96KQ7 1-1210): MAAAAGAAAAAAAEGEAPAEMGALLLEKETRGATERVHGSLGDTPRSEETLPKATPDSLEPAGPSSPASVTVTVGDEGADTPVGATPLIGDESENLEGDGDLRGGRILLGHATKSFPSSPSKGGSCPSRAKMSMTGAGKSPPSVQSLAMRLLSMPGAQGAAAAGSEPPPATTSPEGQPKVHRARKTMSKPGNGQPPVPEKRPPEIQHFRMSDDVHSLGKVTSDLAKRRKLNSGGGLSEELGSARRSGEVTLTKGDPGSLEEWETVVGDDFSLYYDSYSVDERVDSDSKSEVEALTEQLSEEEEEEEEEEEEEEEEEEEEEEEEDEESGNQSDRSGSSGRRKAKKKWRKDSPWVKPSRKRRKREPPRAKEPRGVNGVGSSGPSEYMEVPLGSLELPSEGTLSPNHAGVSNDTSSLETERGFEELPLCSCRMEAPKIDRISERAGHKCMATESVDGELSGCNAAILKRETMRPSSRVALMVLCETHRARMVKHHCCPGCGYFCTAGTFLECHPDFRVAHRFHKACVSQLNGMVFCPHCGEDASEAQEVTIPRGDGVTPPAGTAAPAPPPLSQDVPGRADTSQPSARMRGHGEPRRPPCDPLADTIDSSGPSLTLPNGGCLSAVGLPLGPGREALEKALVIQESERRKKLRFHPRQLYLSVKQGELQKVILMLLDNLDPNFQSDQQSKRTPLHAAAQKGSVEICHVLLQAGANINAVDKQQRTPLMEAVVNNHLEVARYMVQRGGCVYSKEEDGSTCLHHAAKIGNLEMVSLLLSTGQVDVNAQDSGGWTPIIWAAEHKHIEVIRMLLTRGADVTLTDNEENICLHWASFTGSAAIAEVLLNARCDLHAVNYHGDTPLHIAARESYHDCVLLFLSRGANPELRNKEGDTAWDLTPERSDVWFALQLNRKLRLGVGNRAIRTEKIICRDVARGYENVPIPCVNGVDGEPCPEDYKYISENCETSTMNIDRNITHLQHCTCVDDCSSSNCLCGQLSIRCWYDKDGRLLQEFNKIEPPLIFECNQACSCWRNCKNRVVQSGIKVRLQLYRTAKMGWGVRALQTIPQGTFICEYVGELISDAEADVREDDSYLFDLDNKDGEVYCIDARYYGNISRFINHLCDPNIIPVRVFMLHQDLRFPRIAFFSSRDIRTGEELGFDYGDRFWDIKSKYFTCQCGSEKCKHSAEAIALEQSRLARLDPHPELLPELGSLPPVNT
# Protocol: G9a Enzyme Activity Assay
# The biochemical assay to measure G9a enzyme activity relies on time-resolved fluorescence energy transfer (TR-FRET) between europium cryptate (donor) and XL665 (acceptor). […] The human G9a enzyme expressed in a baculovirus infected Sf9 cell expression system was obtained from BPS Biosciences (Cat. #51001). Enzyme activity assay was carried out in a white 384-well plate in a final volume of 20 μl, as follow: • 4 μl of vehicle or studied compound 2.5× concentrated prepared in assay buffer (50 mM Tris-HCl, 10 mM NaCl, 4 mM DTT, 0.01% Tween-20 pH9). Final percentage of DMSO was 0.5%. • 2 μl of 1 nM G9a enzyme diluted in assay buffer. […] Final concentration 150 nM. • Then, add 5 μl of streptavidin XL665 beads. Final concentration of 16 μM. • Read the plate after 1 hour of incubation at room temperature.
# as §5, with “compounds. Negative control was obtained in the absence of G9a enzyme activity.” for “compounds.”
# [7] = test system: DNA methyltransferase (DNMT); conditions: selectivity in a methyltransferase enzyme panel including one DNMT, according to the authors; cited from earlier work
# T1 sequence (P26358 whole entry): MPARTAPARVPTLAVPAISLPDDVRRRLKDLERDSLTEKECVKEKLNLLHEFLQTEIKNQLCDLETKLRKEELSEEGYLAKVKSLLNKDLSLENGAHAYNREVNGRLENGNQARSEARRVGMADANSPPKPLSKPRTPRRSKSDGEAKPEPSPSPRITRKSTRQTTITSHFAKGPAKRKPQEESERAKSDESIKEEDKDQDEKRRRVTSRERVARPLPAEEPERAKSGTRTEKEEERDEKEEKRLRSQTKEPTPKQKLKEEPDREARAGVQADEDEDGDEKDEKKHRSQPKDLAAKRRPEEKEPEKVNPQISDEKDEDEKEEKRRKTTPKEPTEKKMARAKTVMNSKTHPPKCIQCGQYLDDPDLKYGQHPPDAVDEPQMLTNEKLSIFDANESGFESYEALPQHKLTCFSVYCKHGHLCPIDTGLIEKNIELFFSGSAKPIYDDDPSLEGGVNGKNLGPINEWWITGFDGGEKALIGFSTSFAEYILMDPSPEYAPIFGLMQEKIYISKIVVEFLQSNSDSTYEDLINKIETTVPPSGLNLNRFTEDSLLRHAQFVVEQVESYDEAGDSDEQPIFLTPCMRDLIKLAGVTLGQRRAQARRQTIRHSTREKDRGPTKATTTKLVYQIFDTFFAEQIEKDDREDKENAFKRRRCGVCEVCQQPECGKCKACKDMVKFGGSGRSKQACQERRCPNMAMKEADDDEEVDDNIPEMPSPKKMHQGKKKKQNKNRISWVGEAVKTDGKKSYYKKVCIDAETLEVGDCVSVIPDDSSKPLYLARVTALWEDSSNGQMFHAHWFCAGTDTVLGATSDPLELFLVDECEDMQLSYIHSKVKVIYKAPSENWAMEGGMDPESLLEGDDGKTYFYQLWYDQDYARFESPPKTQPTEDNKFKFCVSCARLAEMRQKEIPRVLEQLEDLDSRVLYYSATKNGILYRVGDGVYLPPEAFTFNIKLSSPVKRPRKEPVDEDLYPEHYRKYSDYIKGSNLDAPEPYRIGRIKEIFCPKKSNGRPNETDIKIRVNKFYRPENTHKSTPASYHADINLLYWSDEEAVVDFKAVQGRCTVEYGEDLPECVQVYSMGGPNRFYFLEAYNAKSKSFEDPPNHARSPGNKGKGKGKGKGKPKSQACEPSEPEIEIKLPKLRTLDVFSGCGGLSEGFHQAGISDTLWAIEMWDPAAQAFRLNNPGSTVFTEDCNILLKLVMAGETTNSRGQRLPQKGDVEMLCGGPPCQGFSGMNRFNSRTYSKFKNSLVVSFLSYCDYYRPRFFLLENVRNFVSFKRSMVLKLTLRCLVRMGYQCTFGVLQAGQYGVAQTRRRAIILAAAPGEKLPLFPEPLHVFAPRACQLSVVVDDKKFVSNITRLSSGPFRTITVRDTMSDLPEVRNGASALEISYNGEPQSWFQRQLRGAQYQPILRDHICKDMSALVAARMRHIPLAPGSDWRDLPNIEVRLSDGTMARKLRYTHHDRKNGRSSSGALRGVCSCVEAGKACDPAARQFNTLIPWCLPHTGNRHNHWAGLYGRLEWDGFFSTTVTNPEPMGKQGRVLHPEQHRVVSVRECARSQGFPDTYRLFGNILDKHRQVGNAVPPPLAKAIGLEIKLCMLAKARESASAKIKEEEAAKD
Structure (SMILES),GI50 [1] [nM],GI50 [2] [nM],GI50 [3] [nM],GI50 [4] [nM],IC50 [5] [nM],IC50 [6] [nM],activity against the DNA methyltransferase [7]
"COc1cc2c(OC3CCN(C)CC3)cc(-c3ccc(C)o3)nc2cc1OCCCN1CCCC1 [Compound 3-01, 6-methoxy-2-(5-methyl-2-furyl)-4-[(1-methyl-4-piperidyl)oxy]-7-(3-pyrrolidin-1-ylpropoxy)quinoline]",1000 to 10000,1000 to 10000,1000 to 10000,1000 to 10000,–,–,–
COc1cc2c(N(C)CC3CCN(C)CC3)cc(-c3ccc(C)o3)nc2cc1OCCCN1CCCC1 [Compound 1-03],100 to 1000,1000 to 10000,–,100 to 1000,100 to 500,1000 to 10000,–
COc1cc2nc(N3CCCN(C)CC3)cc(NC3CCN(Cc4ccccc4)CC3)c2cc1OC [Compound 41],–,–,–,–,–,–,inactive
CCc1ccc(-c2cc(N(C)CC3CCN(C)CC3)c3cc(OC)c(OCCCN4CCCC4)cc3n2)o1 [Compound 1-04],100 to 1000,100 to 1000,–,100 to 1000,100 to 500,500 to 1000,–
COc1cc2nc(N3CCN(C)CC3)cc(NC3CCN(Cc4ccccc4)CC3)c2cc1OC [Compound 42],–,–,–,–,–,–,inactive
